Values quoted from earlier work, collected in US7560455B2, “3-Amino-4-phenylbutanoic acid derivatives as dipeptidyl peptidase inhibitors for the treatment or prevention of diabetes” (Merck & Co., Inc., priority 2003, dated 2009).

Legend:
cardiac allograft = conditions: rats; doubled from day 7 to day 14
hematopoiesis = conditions: mouse, cyclophosphamide-induced neutropenia
DP-IV = biological target: T1, DP-IV (Homo sapiens, UniProt P27487)
T1 construct: GRF is rapidly degraded in plasma to GRF[3-44]
T1 sequence (P27487 whole entry): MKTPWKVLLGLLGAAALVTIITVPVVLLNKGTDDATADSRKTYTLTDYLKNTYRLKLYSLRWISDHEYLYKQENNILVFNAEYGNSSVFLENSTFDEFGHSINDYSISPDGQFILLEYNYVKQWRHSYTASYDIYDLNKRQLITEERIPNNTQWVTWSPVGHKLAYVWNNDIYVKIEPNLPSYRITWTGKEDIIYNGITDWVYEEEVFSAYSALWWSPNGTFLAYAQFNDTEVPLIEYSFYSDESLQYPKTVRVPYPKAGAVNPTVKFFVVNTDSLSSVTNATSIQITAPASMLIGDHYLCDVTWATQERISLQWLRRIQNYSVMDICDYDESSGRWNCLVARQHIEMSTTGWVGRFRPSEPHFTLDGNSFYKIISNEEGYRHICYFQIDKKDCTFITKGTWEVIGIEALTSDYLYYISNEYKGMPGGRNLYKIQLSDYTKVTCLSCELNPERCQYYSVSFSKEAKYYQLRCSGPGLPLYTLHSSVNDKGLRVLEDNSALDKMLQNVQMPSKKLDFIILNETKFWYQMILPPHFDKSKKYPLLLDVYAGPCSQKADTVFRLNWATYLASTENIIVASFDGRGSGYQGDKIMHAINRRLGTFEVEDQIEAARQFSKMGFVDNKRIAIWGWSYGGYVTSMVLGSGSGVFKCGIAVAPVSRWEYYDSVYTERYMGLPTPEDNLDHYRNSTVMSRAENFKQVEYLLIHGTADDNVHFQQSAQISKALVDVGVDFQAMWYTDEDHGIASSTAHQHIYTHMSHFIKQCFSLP

**Q.** With `CC(C)N1CCC(c2ccccc2)(c2ccccc2)CC1` [Prodipine, Pro-Pro-diphenyl-phosphonate] as the compound, how does the cardiac allograft survival (cardiac allograft) read?
**A.** 14 day

**Q.** Which effect on hematopoiesis (hematopoiesis) does the source give for `CC(C)[C@H](N)C(=O)N1CCC[C@H]1B(O)O` [Val-Boro-Pro] here?
**A.** stimulated hematopoiesis

**Q.** Which “effect on degradation of GRF in plasma to GRF[3-44]” value (DP-IV) does the source give for diprotin A here?
**A.** prevented
